As usually defined, the EC50 is the midpoint of the concentration-response curve. As a reminder, the Dmax is the greatest extent of degradation seen. Broadly, the DC50 is the midpoint of the concentration-degradation curve.

Like-named read-outs stand apart in the source and are kept apart here. A value given as a limit tells only on which side of the number the result lay.

The target in one assay is CRBN-DDB1 (Homo sapiens (Human), UniProt Q96SW2). Kind of assay: Compound binding to CRBN by HTRF assay. In outline:
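HTRF displacement of Cy5-thalidomide probe (100 nM) from His-tagged CRBN-DDB1 (2.5 nM) with anti-His terbium cryptate, in HEPES/NaCl/TCEP/EDTA/Tween20 buffer; 11-point 1:3 dilution series, 30 min at ambient temperature. Signal (665/620 nm) normalized to lenalidomide and DMSO controls; EC50 fitted, Ki by Cheng-Prusoff from geometric mean EC50.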

Another assay concerns the target NEK7 (Homo sapiens (Human), UniProt Q8TDX7+Q96SW2). Kind of assay: NEK7 NanoBiT degradation assay in Cal51 NEK7 NanoBiT cell line. The format is cell-based. The settings on record: Cal51 NEK7 NanoBiT cells, 24 hours; for Dmax: CAL-51. The method in brief:
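Cal51 cells with CRISPR knock-in HiBiT-tagged endogenous NEK7 plus stable LgBiT, in live-cell Endurazine medium, seeded 16 h before dosing. Compounds at final 1 μM to 0.05 nM for 24 h at 37 °C, then luminescence read. Response normalized to plate controls and fitted with a 4-parameter logistic giving EC50.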

Setting [1] is: NEK7 degradation, read-out: NanoBiT Dmax.
Where [2] appears, read: NEK7 degradation, read-out: NanoBiT DC50.

Chain of NEK7 (Q8TDX7 whole entry): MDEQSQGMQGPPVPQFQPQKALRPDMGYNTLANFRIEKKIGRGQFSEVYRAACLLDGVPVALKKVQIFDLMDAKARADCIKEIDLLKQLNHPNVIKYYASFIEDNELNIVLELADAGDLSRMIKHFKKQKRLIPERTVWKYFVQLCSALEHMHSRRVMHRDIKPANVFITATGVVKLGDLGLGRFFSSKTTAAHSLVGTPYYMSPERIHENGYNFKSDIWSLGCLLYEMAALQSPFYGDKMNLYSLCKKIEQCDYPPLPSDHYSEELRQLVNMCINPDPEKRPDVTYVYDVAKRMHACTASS
Chain of NEK7 (Q96SW2 whole entry): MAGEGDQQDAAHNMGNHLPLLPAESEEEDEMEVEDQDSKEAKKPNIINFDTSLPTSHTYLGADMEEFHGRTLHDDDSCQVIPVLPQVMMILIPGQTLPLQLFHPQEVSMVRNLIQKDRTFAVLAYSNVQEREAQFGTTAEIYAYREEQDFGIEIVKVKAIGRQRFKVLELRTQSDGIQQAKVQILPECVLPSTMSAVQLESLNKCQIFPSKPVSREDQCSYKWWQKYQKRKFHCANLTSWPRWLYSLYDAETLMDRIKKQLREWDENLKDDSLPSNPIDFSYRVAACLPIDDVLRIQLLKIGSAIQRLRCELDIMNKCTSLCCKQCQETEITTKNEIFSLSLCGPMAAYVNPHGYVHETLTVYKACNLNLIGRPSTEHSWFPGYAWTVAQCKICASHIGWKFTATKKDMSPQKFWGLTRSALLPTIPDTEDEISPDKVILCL
Chain of NEK7 (Q16531 2-1140 partner): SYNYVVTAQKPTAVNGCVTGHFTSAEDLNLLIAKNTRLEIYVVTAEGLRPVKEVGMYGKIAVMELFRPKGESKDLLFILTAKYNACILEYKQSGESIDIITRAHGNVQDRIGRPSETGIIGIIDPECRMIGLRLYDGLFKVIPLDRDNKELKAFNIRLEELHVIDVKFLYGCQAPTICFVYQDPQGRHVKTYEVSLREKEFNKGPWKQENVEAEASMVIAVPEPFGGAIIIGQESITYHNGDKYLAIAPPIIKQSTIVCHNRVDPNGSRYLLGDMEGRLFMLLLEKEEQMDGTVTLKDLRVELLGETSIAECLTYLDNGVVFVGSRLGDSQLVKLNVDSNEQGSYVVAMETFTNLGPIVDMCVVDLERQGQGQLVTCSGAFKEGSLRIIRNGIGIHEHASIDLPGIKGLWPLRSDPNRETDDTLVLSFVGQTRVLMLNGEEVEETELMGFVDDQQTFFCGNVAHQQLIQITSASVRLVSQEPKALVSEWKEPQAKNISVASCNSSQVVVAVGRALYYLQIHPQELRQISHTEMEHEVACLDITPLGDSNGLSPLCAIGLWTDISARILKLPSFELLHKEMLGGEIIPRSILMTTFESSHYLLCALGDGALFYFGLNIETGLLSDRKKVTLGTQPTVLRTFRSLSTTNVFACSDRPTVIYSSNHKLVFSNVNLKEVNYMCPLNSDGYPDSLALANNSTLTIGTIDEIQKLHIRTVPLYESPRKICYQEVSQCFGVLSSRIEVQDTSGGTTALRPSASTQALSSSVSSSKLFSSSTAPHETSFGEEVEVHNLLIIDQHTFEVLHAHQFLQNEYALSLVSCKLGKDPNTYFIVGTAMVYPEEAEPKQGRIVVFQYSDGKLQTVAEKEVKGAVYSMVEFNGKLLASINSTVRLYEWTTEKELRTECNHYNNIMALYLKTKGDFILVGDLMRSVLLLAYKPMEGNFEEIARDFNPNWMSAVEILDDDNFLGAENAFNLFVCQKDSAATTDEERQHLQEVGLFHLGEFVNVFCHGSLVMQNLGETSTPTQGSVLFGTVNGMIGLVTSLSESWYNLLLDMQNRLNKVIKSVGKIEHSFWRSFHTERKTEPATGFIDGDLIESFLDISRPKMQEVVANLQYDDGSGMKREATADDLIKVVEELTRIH
Chain of CRBN-DDB1 (Q96SW2 whole entry): as the sequence (Q96SW2 whole entry) above
Chain of CRBN-DDB1 (Q16531 whole entry partner): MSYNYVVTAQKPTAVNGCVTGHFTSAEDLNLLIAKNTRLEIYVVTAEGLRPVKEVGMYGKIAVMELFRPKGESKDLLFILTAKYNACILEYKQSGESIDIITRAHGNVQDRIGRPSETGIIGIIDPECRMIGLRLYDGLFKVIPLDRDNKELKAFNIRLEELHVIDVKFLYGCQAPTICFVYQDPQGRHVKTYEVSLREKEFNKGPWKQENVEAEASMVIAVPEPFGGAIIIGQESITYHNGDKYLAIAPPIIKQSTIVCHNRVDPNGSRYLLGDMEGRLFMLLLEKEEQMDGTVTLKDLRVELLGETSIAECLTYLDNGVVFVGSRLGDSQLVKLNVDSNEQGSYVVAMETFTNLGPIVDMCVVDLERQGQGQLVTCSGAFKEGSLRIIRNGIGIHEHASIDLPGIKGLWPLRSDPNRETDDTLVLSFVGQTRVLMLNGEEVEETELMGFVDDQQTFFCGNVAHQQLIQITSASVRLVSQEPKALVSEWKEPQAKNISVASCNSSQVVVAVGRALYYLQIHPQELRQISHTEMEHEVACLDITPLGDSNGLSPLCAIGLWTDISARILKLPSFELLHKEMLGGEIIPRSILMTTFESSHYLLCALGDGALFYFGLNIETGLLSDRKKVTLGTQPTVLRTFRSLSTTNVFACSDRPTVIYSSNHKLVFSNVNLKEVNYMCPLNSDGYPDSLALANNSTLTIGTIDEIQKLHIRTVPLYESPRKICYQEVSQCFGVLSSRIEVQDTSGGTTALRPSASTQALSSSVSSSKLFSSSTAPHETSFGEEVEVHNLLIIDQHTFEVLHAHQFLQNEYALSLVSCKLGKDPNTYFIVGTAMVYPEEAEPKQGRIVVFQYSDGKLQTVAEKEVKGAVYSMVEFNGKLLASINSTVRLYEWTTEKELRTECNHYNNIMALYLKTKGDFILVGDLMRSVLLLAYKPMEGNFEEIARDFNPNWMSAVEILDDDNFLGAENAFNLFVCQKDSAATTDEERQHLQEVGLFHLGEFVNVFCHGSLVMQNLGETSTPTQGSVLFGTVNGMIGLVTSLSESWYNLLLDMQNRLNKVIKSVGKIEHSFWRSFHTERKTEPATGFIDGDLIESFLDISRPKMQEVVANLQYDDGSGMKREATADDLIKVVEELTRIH

On to `CC(C)(C(=O)NCc1cc(Cl)c(C2CCC(=O)NC2=O)c(Cl)c1)c1nc(C2CC2)no1` (stereo not drawn) [Compound 218], for which the EC50 was 80 nM on CRBN-DDB1 and no more than 100 nM at CRBN-DDB1 (HTRF class, Cereblon binding). Moreover, the Dmax was 71% on NEK7 (read-out: NEK7 NanoBiT Dmax) and 50 to 75% on NEK7 (setting [1]). The DC50 at NEK7 (read-out: NEK7 NanoBiT DC50) was 49 nM; on NEK7 (setting [2]), no more than 100 nM.

Turning to `CC(C)(C(=O)NCc1cc(Cl)c(C2CCC(=O)NC2=O)c(Cl)c1)c1ncc(N2CCC2)cn1` (stereo not drawn) [Compound 165], the EC50 at CRBN-DDB1 was 170 nM; on CRBN-DDB1 (HTRF class, Cereblon binding), 100 to 1000 nM. Also, the Dmax on NEK7 (read-out: NEK7 NanoBiT Dmax) is 69%; at NEK7 (setting [1]), 50 to 75%. The figures for the DC50 on NEK7 (read-out: NEK7 NanoBiT DC50) and at NEK7 (setting [2]) were 47 nM and no more than 100 nM, respectively.

Take `CC(C)(C(=O)NCc1cc(Cl)c(C2CCC(=O)NC2=O)c(Cl)c1)N1Cc2ccccc2C1` (stereo not drawn) [Compound 170, N-(3,5-dichloro-4-(2,6-dioxopiperidin-3-yl)benzyl)-2-(isoindolin-2-yl)-2-methylpropanamide]: the EC50 was 180 nM at CRBN-DDB1 and 100 to 1000 nM at CRBN-DDB1 (HTRF class, Cereblon binding). Further, the greatest degradation seen (Dmax) at NEK7 (read-out: NEK7 NanoBiT Dmax) was 73%; on NEK7 (setting [1]), 50 to 75%. Moreover, the results for the 50% degradation concentration (DC50) at NEK7 (read-out: NEK7 NanoBiT DC50) and at NEK7 (setting [2]) were 55 nM and no more than 100 nM, respectively.

Take `CC(C)(C(=O)NCc1cc(Cl)c(C2CCC(=O)NC2=O)c(Cl)c1)c1ccc(S(C)(=O)=O)cc1` (stereo not drawn) [Compound 66]: the EC50 on CRBN-DDB1 was 90 nM; at CRBN-DDB1 (HTRF class, Cereblon binding), no more than 100 nM. Moreover, the Dmax was 96% on NEK7 (read-out: NEK7 NanoBiT Dmax) and greater than 75% at NEK7 (setting [1]). The DC50 at NEK7 (read-out: NEK7 NanoBiT DC50) was 3 nM; at NEK7 (setting [2]) it was no more than 100 nM.

On to `COc1cc(C(C)(C)C(=O)NCc2cc(Cl)c(C3CCC(=O)NC3=O)c(Cl)c2)ccn1` (stereo not drawn) [Compound 98], for which the EC50 is 110 nM on CRBN-DDB1 and 100 to 1000 nM on CRBN-DDB1 (HTRF class, Cereblon binding). The Dmax on NEK7 (read-out: NEK7 NanoBiT Dmax) was 95%; at NEK7 (setting [1]) it was greater than 75%. The DC50 at NEK7 (read-out: NEK7 NanoBiT DC50) was 3 nM; at NEK7 (setting [2]) it was no more than 100 nM.

As for `CC(C)(C(=O)NCc1cc(Cl)c(C2CCC(=O)NC2=O)c(Cl)c1)c1ccc2c(c1)S(=O)(=O)NC2` (stereo not drawn) [Compound 32, N-(3,5-dichloro-4-(2,6-dioxopiperidin-3-yl)benzyl)-2-(1,1-dioxido-2,3-dihydrobenzo[d]isothiazol-6-yl)-2-methylpropanamide], the EC50 at CRBN-DDB1 is 110 nM; on CRBN-DDB1 (HTRF class, Cereblon binding) it was 100 to 1000 nM. The greatest degradation seen (Dmax) at NEK7 (read-out: NEK7 NanoBiT Dmax) is 95%; at NEK7 (setting [1]), greater than 75%. Also, the DC50 at NEK7 (read-out: NEK7 NanoBiT DC50) is 4 nM; at NEK7 (setting [2]) it was no more than 100 nM.

Regarding `CC(C)(C(=O)NCc1cc(Cl)c(C2CCC(=O)NC2=O)c(Cl)c1)c1ccc(S(N)(=O)=O)cc1F` (stereo not drawn) [Compound 43], the 50% effective concentration (EC50) was 40 nM at CRBN-DDB1 and no more than 100 nM at CRBN-DDB1 (HTRF class, Cereblon binding). Further, the Dmax on NEK7 (read-out: NEK7 NanoBiT Dmax) is 97%; on NEK7 (setting [1]), greater than 75%. The DC50 at NEK7 (read-out: NEK7 NanoBiT DC50) was 1 nM; at NEK7 (setting [2]) it was no more than 100 nM.

On to `CC(C)(C(=O)NCc1cc(Cl)c(C2CCC(=O)NC2=O)c(Cl)c1)C1CCCCC1` (stereo not drawn) [Compound 211], for which the EC50 is 900 nM at CRBN-DDB1 and 100 to 1000 nM on CRBN-DDB1 (HTRF class, Cereblon binding). Besides, the figures for the Dmax on NEK7 (read-out: NEK7 NanoBiT Dmax) and at NEK7 (setting [1]) were 90% and greater than 75%, respectively. Besides, the DC50 at NEK7 (read-out: NEK7 NanoBiT DC50) was 8 nM; on NEK7 (setting [2]) it was no more than 100 nM.

Take `CC(C)(C(=O)NCc1cc(Cl)c(C2CCC(=O)NC2=O)c(Cl)c1)c1cc(F)nc(F)c1` (stereo not drawn) [Compound 73]: the EC50 at CRBN-DDB1 was 170 nM; on CRBN-DDB1 (HTRF class, Cereblon binding) it was 100 to 1000 nM. The greatest degradation seen (Dmax) on NEK7 (read-out: NEK7 NanoBiT Dmax) is 93%; on NEK7 (setting [1]), greater than 75%. The DC50 on NEK7 (read-out: NEK7 NanoBiT DC50) was 4 nM; on NEK7 (setting [2]), no more than 100 nM.

`COc1cnc(C(C)(C)C(=O)NCc2cc(F)c(C3CCC(=O)NC3=O)c(Cl)c2)cn1` (stereo not drawn) [Compound 251]: the concentration giving a half-maximal response (EC50) at CRBN-DDB1 was 80 nM; on CRBN-DDB1 (HTRF class, Cereblon binding) it was no more than 100 nM. Moreover, the Dmax at NEK7 (read-out: NEK7 NanoBiT Dmax) was 92%; on NEK7 (setting [1]), greater than 75%. The 50% degradation concentration (DC50) is 4 nM at NEK7 (read-out: NEK7 NanoBiT DC50) and no more than 100 nM on NEK7 (setting [2]).

`CC(C)(C(=O)NCc1cc(Cl)c(C2CCC(=O)NC2=O)c(Cl)c1)c1cnc(OC(F)F)cn1` (stereo not drawn) [Compound 257]: the EC50 at CRBN-DDB1 was 50 nM; on CRBN-DDB1 (HTRF class, Cereblon binding), no more than 100 nM. Besides, the results for the Dmax at NEK7 (read-out: NEK7 NanoBiT Dmax) and on NEK7 (setting [1]) were 95% and greater than 75%, respectively. In addition, the 50% degradation concentration (DC50) is 1 nM at NEK7 (read-out: NEK7 NanoBiT DC50) and no more than 100 nM on NEK7 (setting [2]).

In the case of `CC(C)(C(=O)NCc1cc(Cl)c(C2CCC(=O)NC2=O)c(Cl)c1)c1ccc2[nH]ccc2c1` (stereo not drawn) [Compound 91], the EC50 is 40 nM at CRBN-DDB1 and no more than 100 nM on CRBN-DDB1 (HTRF class, Cereblon binding). Further, the Dmax at NEK7 (read-out: NEK7 NanoBiT Dmax) is 97%; on NEK7 (setting [1]), greater than 75%. Moreover, the half-maximal degradation concentration (DC50) at NEK7 (read-out: NEK7 NanoBiT DC50) is 0.4 nM; at NEK7 (setting [2]), no more than 100 nM.

As to `CC(C)(C(=O)NCc1cc(Cl)c(C2CCC(=O)NC2=O)c(Cl)c1)c1ccc(C(F)(F)F)nn1` (stereo not drawn) [Compound 191], the EC50 at CRBN-DDB1 was 170 nM; on CRBN-DDB1 (HTRF class, Cereblon binding), 100 to 1000 nM. Moreover, the maximal degradation (Dmax) on NEK7 (read-out: NEK7 NanoBiT Dmax) is 85%; at NEK7 (setting [1]), greater than 75%. Also, the DC50 is 13 nM on NEK7 (read-out: NEK7 NanoBiT DC50) and no more than 100 nM on NEK7 (setting [2]).

With `CC(C)(C(=O)NCc1ccc(C2CCC(=O)NC2=O)c(Cl)c1)c1ccncc1` (stereo not drawn) [Compound 109], the EC50 at CRBN-DDB1 is 480 nM; at CRBN-DDB1 (HTRF class, Cereblon binding), 100 to 1000 nM. Also, the Dmax was 69% at NEK7 (read-out: NEK7 NanoBiT Dmax) and 50 to 75% on NEK7 (setting [1]). Moreover, the results for the DC50 on NEK7 (read-out: NEK7 NanoBiT DC50) and on NEK7 (setting [2]) were 250 nM and 100 to 1000 nM, respectively.

On to `CC(C)(C(=O)NCc1cc(Cl)c(C2CCC(=O)NC2=O)c(Cl)c1)c1ncc(OC(F)F)cn1` (stereo not drawn) [Compound 188], for which the EC50 was 80 nM on CRBN-DDB1 and no more than 100 nM at CRBN-DDB1 (HTRF class, Cereblon binding). Also, the Dmax on NEK7 (read-out: NEK7 NanoBiT Dmax) is 93%; on NEK7 (setting [1]), greater than 75%. The figures for the DC50 at NEK7 (read-out: NEK7 NanoBiT DC50) and on NEK7 (setting [2]) were 4 nM and no more than 100 nM, respectively.

As to `CC(C)(C(=O)NCc1cc(Cl)c(C2CCC(=O)NC2=O)c(Cl)c1)c1cccc(C#N)c1` (stereo not drawn) [Compound 21, 2-(3-cyanophenyl)-N-(3,5-dichloro-4-(2,6-dioxopiperidin-3-yl)benzyl)-2-methylpropanamide], the EC50 on CRBN-DDB1 is 90 nM; at CRBN-DDB1 (HTRF class, Cereblon binding) it was no more than 100 nM. The Dmax on NEK7 (read-out: NEK7 NanoBiT Dmax) was 94%; at NEK7 (setting [1]), greater than 75%. For the same compound, the 50% degradation concentration (DC50) at NEK7 (read-out: NEK7 NanoBiT DC50) was 3 nM; on NEK7 (setting [2]), no more than 100 nM.

In the case of `O=C1CCC(c2c(Cl)cc(CNC(=O)C3(c4ccccc4)CCOCC3)cc2Cl)C(=O)N1` (stereo not drawn) [Compound 128, N-(3,5-dichloro-4-(2,6-dioxopiperidin-3-yl)benzyl)-4-phenyltetrahydro-2H-pyran-4-carboxamide], the EC50 at CRBN-DDB1 is 40 nM; on CRBN-DDB1 (HTRF class, Cereblon binding) it was no more than 100 nM. Further, the greatest degradation seen (Dmax) on NEK7 (read-out: NEK7 NanoBiT Dmax) is 95%; on NEK7 (setting [1]) it was greater than 75%. The DC50 is 8 nM at NEK7 (read-out: NEK7 NanoBiT DC50) and no more than 100 nM at NEK7 (setting [2]).

Consider `CC(C)(C(=O)NCc1cc(Cl)c(C2CCC(=O)NC2=O)c(Cl)c1)c1cc(C#N)ccn1` (stereo not drawn) [Compound 157], for which the EC50 is 190 nM at CRBN-DDB1 and 100 to 1000 nM at CRBN-DDB1 (HTRF class, Cereblon binding). Also, the Dmax was 60% on NEK7 (read-out: NEK7 NanoBiT Dmax) and 50 to 75% at NEK7 (setting [1]). Also, the values for the DC50 on NEK7 (read-out: NEK7 NanoBiT DC50) and on NEK7 (setting [2]) were 178 nM and 100 to 1000 nM, respectively.

As for `CC(C)(C(=O)NCc1cc(Cl)c(C2CCC(=O)NC2=O)c(Cl)c1)c1cccc(S(C)(=O)=O)c1` (stereo not drawn) [Compound 62], the EC50 at CRBN-DDB1 was 50 nM; on CRBN-DDB1 (HTRF class, Cereblon binding), no more than 100 nM. Besides, the Dmax was 96% at NEK7 (read-out: NEK7 NanoBiT Dmax) and greater than 75% on NEK7 (setting [1]). The DC50 on NEK7 (read-out: NEK7 NanoBiT DC50) was 2 nM; at NEK7 (setting [2]), no more than 100 nM.

For `Cc1coc(C(C)(C)C(=O)NCc2cc(F)c(C3CCC(=O)NC3=O)c(Cl)c2)n1` (stereo not drawn) [Compound 254], the EC50 on CRBN-DDB1 is 120 nM; at CRBN-DDB1 (HTRF class, Cereblon binding), 100 to 1000 nM. For the same compound, the Dmax was 55% on NEK7 (read-out: NEK7 NanoBiT Dmax) and 50 to 75% at NEK7 (setting [1]). Also, the DC50 on NEK7 (read-out: NEK7 NanoBiT DC50) was 278 nM; at NEK7 (setting [2]), 100 to 1000 nM.

These data come from patent US20250243180A1, “TARGETED PROTEIN DEGRADATION” (Monte Rosa Therapeutics AG, priority 2023, published 2025).
